# Experiments:
# [1] = Weight determinations in rat infarct model of chronic heart insufficiency; format: in vivo, Male Wistar-rats; settings: day 224 after surgery
# Description: (§1) An animal study was carried out, wherein a ligation of the left coronary artery was performed in 140 animals. For control 20 animals were operated without coronary ligature (sham-surgery). Two weeks after surgery, therapy was started. Therefore, the animals were treated with a diuretic (furosemide, in average 10 per kg in drinking water). After six weeks double-blind randomised therapy with either placebo, old or new megestrol acetate (from day 42 on using gavage, 100 mg per kg) or ACE-inhibitor (Ramipril®, 1 mg per kg per day) was started. The infarct groups consisted of 38 animal each for Ramipril® and placebo, 37 for MA-1 and 40 for MA-II, as well as 5 animals per sham group. During the therapy animals were weighed twice a week. On day 224 after surgery animals were sacrificed and the lung was analyzed regarding weight and histopathology.
# Male Wistar-rats (Dimed GmbH, Schönwalde, Germany) were held in an environment controlled animal facility having a constant temperature of 23° C. in a 12 hour day-night-cycle.
# (§2) The animals underwent surgical treatment at a weight of about 210-220 g. In order to produce a heart insufficiency the inventors performed the surgical treatment in accordance with an infarction model that was already used in several prior studies. The heart infarction is produced according to a slightly modified method described by Selye et al. [Selye H, Bajusz E, Grassos S, Mendel P. Simple techniques for the surgical occlusion of coronary vessels in the rat. Angiology 1960; 11: 398-407] by ligation of the LAD.
# Each rat was anaesthetised by i.p. chloralhydrate (Merck, Darmstadt, Germany) and was subsequently incubated with a PE-catheter (1.2 mm diameter) and respirated using a Rodent-respirator V5K6 (NarcoBio Systems, Houston, Tex., USA). During the whole operation an ECG was performed as control. The thorax was opened, the heart was prepared and a ligature using Ethibond-suture material 7/0 (Ethicon GmbH Norderstedt, Germany) was made in position of the left coronary artery (LAD). Since the coronary arteries during this process can not be viewed by the naked eye, the orientation occurred anatomically based on the position of the heart and the visible coronary veins. The success of the infarction could be visually verified based on the occurring paleness, cyanosis and mobility distortion. Subsequently, the thorax was closed. […]
# (§3) After the surgery, the animals were controlled and the weight was analysed twice a week during the whole study. […]
# During the progression of both studies; the animals were weight-determined twice a week, starting from the date of surgery (laboratory balance model CS2000. Ohaus Corporation, Pine Brook, N.J., USA). The results were calculated corresponding to the post-surgical day of the respective animal. […]
# [2] = Body weight, body composition (NMR-scanning) and tibia length in rat myocardial infarct model; format: in vivo, rats; settings: 26 weeks treatment
# Description: (§4) In another study, a similar rat myocardial infarct model as above was used in order to assess the therapeutic potential of MA in heart failure.
# (§5) Methods: From day 14 after surgery (LAD occlusion), rats received frusemide. On day 42, rats were randomized to receive 26 weeks treatment with placebo (PL: n=38), ramipril (n=38, 1 mg/kg/d), the standard MA formulation (MA-I: n=37) or a new nanocristal MA formulation (MA-II: n=40, both 100 mg/kg/d) until sacrifice, Cardiac function was assessed using echocardiography. Additionally, body composition was analyzed boy NMR-scanning, and in a subgroup cardiac function was assessed by MRI scanning and invasive hemodynamics.
# [3] = test system: rat myocardial infarct model; assay: Mortality / survival in rat myocardial infarct model of heart failure; format: in vivo, rats
# Description: as §4, §5
# [4] = test system: lung of infarction surgery rats; assay: Lung wet weight and amount of liquid in the lung in rat infarct model; format: in vivo, Male Wistar-rats
# Description: as §1
# The animals underwent surgical treatment at a weight of about 210-220 g. In order to produce a heart insufficiency the inventors performed the surgical treatment in accordance with an infarction model that was already used in several prior studies. […]
# as §3
# [5] = test system: rat myocardial infarct model; assay: Cardiac function (echocardiography) in rat myocardial infarct model; format: in vivo, rats; settings: 26 weeks treatment
# Description: as §4, §5
# [6] = test system: lung of infarction surgery rats; assay: Histopathology of the lungs in rat infarct model; format: in vivo, Male Wistar-rats
# Description: as §1, §2
# Each rat was anaesthetised by i.p. chloralhydrate (Merck, Darmstadt, Germany) and was subsequently incubated with a PE-catheter (1.2 mm diameter) and respirated using a Rodent-respirator V5K6 (NarcoBio Systems, Houston, Tex., USA). During the whole operation an ECG was performed as control. The thorax was opened, the heart was prepared and a ligature using Ethibond-suture material 7/0 (Ethicon GmbH Norderstedt, Germany) was made in position of the left coronary artery (LAD). Since the coronary arteries during this process can not be viewed by the naked eye, the orientation occurred anatomically based on the position of the heart and the visible coronary veins. The success of the infarction could be visually verified based on the occurring paleness, cyanosis and mobility distortion. Subsequently, the thorax was closed. The respiration was ended, once a stable ECG was reached. 20 rats were used as control animals and were surgically treated in the same manner as the infarction animals. No coronary ligature was introduced in these animals (sham-surgery).
# After the surgery, the animals were controlled and the weight was analysed twice a week during the whole study. From day 14 on, the animals received furosemide, accompanied from day 42 on with either placebo, ACE-inhibitor, MA-I or MA-TI. On day […] post-surgery the animals were randomised and segregated into the respective groups. During therapy animals were weighted twice a week and on day 224 post-surgery animals were sacrificed to analyze organs.
# MA-I, MA-II, ACE-inhibitor (Ramipril®) or control substances were administered to the animals via gavage. Depending on the time of surgery, the animals were gavaged stating from week six after the in infarction surgery once a day, whereby the amount of gavage was adjusted to the weight (100 mg MA-I/kg body weight per day, 1 ml solution contains 40 mg MA-I or MA-II or placebo, respectively).
# In the 32st week post-surgery, the surviving animals were anaesthetised using chloralhydrate i.p. […] body weight (Sigma-Aldrich Chemie GmbH, Deisenhofen, Germany). Following the preparation of the subscapular brown fatty tissue, lapratomisation was performed and blood was drawn from the aorta abdominalis into EDTA-flushed 10 ml syringes (Roth, Karlsruhe, Germany) and added to pre-chilled 12 ml-tubes (Sarstedt, Nümbrecht, Germany). The following parts were removed completely or partially: lung, heart, liver, kidneys, renal glands, inguinal fatty tissue, epididymal fatty tissue, gastrocnemius, and brain. […]
# [7] = infarct animals, around the great respiratory tracts, day 224
# [8] = infarct animals, great respiratory tracts, day 224
compound,measurement,setting,value
CCOC(=O)[C@H](CCc1ccccc1)N[C@@H](C)C(=O)N1[C@H](C(=O)O)C[C@@H]2CCC[C@@H]21 [Ramipril],Weight of animals normalised to tibia length at the end of the study (mean),[1]; infarct animals,133.2 g/cm tibia
same,Weight of animals at the end of the study (mean),"[1]; infarct animals, gavage from day 42, MA 100 mg/kg/d, ramipril 1 mg/kg/d",575.0 g
same,Weight of animals at the end of the study (mean),[1]; sham-surgery animals,567.2 g
same,Weight of animals normalised to tibia length at the end of the study (mean),[1]; sham-surgery animals,135.0 g/cm tibia
same,"Body weight, end of study","[2]; MA 100 mg/kg/d, ramipril 1 mg/kg/d, in g",575 ± 8
same,Fat/tibia,[2]; NMR-scanning,45.3 ± 5.9 g/cm
same,Lean/tibia,[2]; NMR-scanning,83.2 ± 2.5 g/cm
same,tibia length,[2]; retarded growth,4.3 cm
same,Mortality,"[3]; 26 weeks treatment from day 42, MA 100 mg/kg/d, ramipril 1 mg/kg/d",13%
same,average weight of the liquid in the lung,[4],2396 mg
same,average wet weight of the lung,[4],3103 ± 281 mg
same,CO/BW,[5],178 ± 8^$ ml/min/kg
same,EF,[5],40 ± 2%
same,Inflammation: number of animals graded little,[6]; [7],1
same,Inflammation: number of animals graded medium,[6]; [7],2
same,Inflammation: number of animals graded strong,[6]; [7],2
same,Inflammation: number of animals graded very strong,[6]; [7],18
same,Mucus goblet cells: number of animals graded medium,[6]; [8],7
same,Mucus goblet cells: number of animals graded strong,[6]; [8],6
same,Mucus goblet cells: number of animals graded very strong,[6]; [8],10
same,Emphysema: number of animals graded little,"[6]; infarct animals, lung, day 224",3
same,Emphysema: number of animals graded medium,"[6]; infarct animals, lung, day 224",6
same,Emphysema: number of animals graded none,"[6]; infarct animals, lung, day 224",8
same,Emphysema: number of animals graded strong,"[6]; infarct animals, lung, day 224",4
same,Emphysema: number of animals graded very strong,"[6]; infarct animals, lung, day 224",2
same,Fibrosis: number of animals graded little,"[6]; infarct animals, lung, day 224",5
same,Fibrosis: number of animals graded medium,"[6]; infarct animals, lung, day 224",4
same,Fibrosis: number of animals graded none,"[6]; infarct animals, lung, day 224",12
same,Fibrosis: number of animals graded strong,"[6]; infarct animals, lung, day 224",2
"17-α-acetoxy-6-methylpregna-4,6diene-3,20-dione [Megestrol acetate]",survival in infarction surgery rats,[3]; in comparison to placebo,significantly improved the survival
same,"inflammation and mucus goblet cells of the lung (histopathology, in words)","[6]; infarct rats, vs placebo and Ramipril groups",a reduction in the number of mucus goblet cells and a reduced inflammation of the lung
